From ChEMBL document CHEMBL4138259, “Discovery of JTZ-951: A HIF Prolyl Hydroxylase Inhibitor for the Treatment of Renal Anemia” (ACS Med Chem Lett, 2017)
Activity calls are given as the source filed them. The calls are words filed in the database; no cut-off is given here.

How the values were obtained:
[1] = test system: Mus musculus; assay: Upregulation of plasma EPO level in Balb/c mouse at 10 mg/kg, po administered as single dose measured after 8 hrs by ELISA; assay type: functional
[2] = test system: Rattus norvegicus; assay: Upregulation of plasma EPO level in CD(SD) rat at 10 mg/kg, po administered as single dose measured after 8 hrs by RIA; assay type: functional
[3] = test system: Rattus norvegicus; assay: Toxicity in CD(SD) rat assessed as induction of anorexia at 100 mg/kg, po administered as single dose; assay type: organism-based; settings: in vivo
[4] = in vitro; settings: human, Caco-2
[5] = test system: Rattus norvegicus; assay: Antianemic activity in CD(SD) rat assessed as increase in hemoglobin levels at 3 mg/kg, po administered once daily for 28 days; assay type: functional, organism-based
[6] = test system: Rattus norvegicus; assay: Antianemic activity in CD(SD) rat assessed as increase in hemoglobin levels at 10 mg/kg, po administered once daily for 28 days; assay type: functional, organism-based

Papp A→B at 2 h, 25 µM [4] | Structure (SMILES) | Activity [1] | Activity [2] | Activity [3] | Activity [5] | Activity [6]
9.9 ×10⁻⁶ cm/s | CCCCc1cc(O)c(C(=O)NCC(=O)O)c2ncnn12.Cl | 3700 pg/mL | 2200 pg/mL | Non-Toxic | inactive | Active
9.3 ×10⁻⁶ cm/s | Cl.O=C(O)CNC(=O)c1c(O)cc(CCc2ccccc2)c2ncnn12 | <320 pg/mL | – | – | – | –
8.9 ×10⁻⁶ cm/s | Cc1nc2c(C(=O)NCC(=O)O)c(O)cc(CCc3ccccc3)n2n1.Cl | <260 pg/mL | – | – | – | –
9.3 ×10⁻⁶ cm/s | CCc1c(O)c(C(=O)NCC(=O)O)c2ncnn2c1CC.Cl | 1100 pg/mL | – | – | – | –

The remaining lines, values behind:

Structure (SMILES) | Papp A→B at 2 h, 25 µM [4] | Activity [1] | Activity [2] | Activity [3] | Activity [5] | Activity [6]
O=C(O)CNC(=O)c1c(O)cc(-c2cccc(Cl)c2)n2ncnc12 | 6.1 ×10⁻⁶ cm/s | >15000 pg/mL | 7900 pg/mL | Toxic | – | –
Cl.O=C(O)CNC(=O)c1c(O)cc(-c2ccccc2)c2ncnn12 | 6.5 ×10⁻⁶ cm/s | <260 pg/mL | – | – | – | –
CCCCCc1cc(O)c(C(=O)NCC(=O)O)c2ncnn12.Cl | 20 ×10⁻⁶ cm/s | 2300 pg/mL | 11000 pg/mL | Toxic | – | –
Cl.O=C(O)CNC(=O)c1c(O)cc(-c2ccccc2)n2ncnc12 | 2.5 ×10⁻⁶ cm/s | <320 pg/mL | – | – | – | –
O=C(O)CNC(=O)c1c(O)cc(-c2cccc(Cl)c2)c2ncnn12 | 15 ×10⁻⁶ cm/s | <265 pg/mL | – | – | – | –
CCCCCc1cn2ncnc2c(C(=O)NCC(=O)O)c1O.Cl | 15 ×10⁻⁶ cm/s | <330 pg/mL | – | – | – | –
